From patent US10653364B2, “Method for the continuous evaluation of the ventriculo-aortic coupling of at-risk patients by analysis of pressure-flow loops” (Assistance Publique—Hopitaux de Paris, priority 2014, dated 2020)

Tested on: major neurosurgery patients
Test: Aortic Pressure/Flow loop parameters before (T0) and at peak effect (T1) of a vasoconstrictor bolus in anesthetized patients
Type: in vivo, human
Design: S1, Base / S2, Base / S3, Base / Alpha, Base / Beta, Base / Gamma, Base / Alpha, Variations (Diff) / Beta, Variations (Diff) / Gamma, Variations (Diff) / S1, Variations (Diff) / S2, Variations (Diff) / S3, Variations (Diff): unit not given here
Settings: for S2/Stot, Base / Alpha, Base / Beta, Base / Gamma, Base / S1, Base / S2, Base / S3, Base / S tot, Base: Base (T0, before injection); for Alpha, Base / Beta, Base / Gamma, Base: P/F loop angle; for S1, Base: P/F loop surface area S1; for S2, Base: P/F loop surface area S2; for S3, Base: P/F loop surface area S3; for Alpha, Peak / Beta, Peak / Gamma, Peak / S1, Peak / S2, Peak / S2/Stot, Peak / S3, Peak: Peak effect (T1) after peripheral venous bolus; for change in surface areas (Stot, S1, S2, S3) and angles (alpha, beta and gamma): before and after vasoconstriction, predominantly; for S tot, Base / S tot, Peak: total surface area of P/F loop; for S tot, Peak: Peak effect (T1) after peripheral venous bolus (9 mg Ephedrine, 50 μg Neophenylephrine or 5 μg Noradrenaline)
Text: 1.1 Parameters Measured • The Pressure signal is collected in mmHg (FIG. 2), by means of a radial or femoral arterial catheter. • The esophageal Doppler signal giving the aortic flow in ml/s (FIG. 2) is collected via the Deltex® combi Q monitor. • The Pressure/Flow loop is constructed heart beat by heart beat with the simultaneous values of aortic flow on the x-axis and of pressure on the y-axis.
1.2 Description of the Various Parameters Resulting from the Aortic Pressure/Flow Loop: • the various specific points of the loop (FIG. 3-4): • A: diastolic pressure: the flow is zero before the beginning of systole. • B: maximum flow. • C: maximum pressure (systolic pressure). • D: dicrotic pressure: pressure at closing of the aortic valves: flow at 0, beginning of diastole. • The various specific straight lines of the loop: • straight line passing through points A and B: straight line between the beginning of the cycle and the point where the flow rate is at the maximum. • straight line passing through points A and C: straight line between the beginning of the cycle and the point where the pressure is at the maximum. • The various specific surface areas of the loop (FIG. 5): • Stot: total surface area of the Pressure/Flow loop. • S1: surface area between the lower part of the curve and the straight line (AB). • S2: surface area of the loop included between the two straight lines (AB) and (AC). • S3: surface area of the loop included between the straight line (AC) and the upper edge of the loop. • The various angles of the loop (FIG. 6): • Alpha: angle between the horizontal passing through point A and the straight line (AB). • Beta: angle between the horizontal passing through point A and the straight line (AC). • Gamma: angle between the two straight lines (AB) and (AC).
The study was carried out in the operating theatre on major neurosurgery patients, after agreement from the Ethics Committee (CE SRLF 11-356) and obtaining of informed consent. In addition to the standard monitoring, a device for simultaneous invasive measurement of arterial pressure and measurement of cardiac output by trans-esophageal Doppler (CombiQ®, Deltex Medical) was set out after induction of general anesthesia. Moreover, in order to have a reflection of arterial elastance and of arterial stiffness, an arterial tonometer (SphygmoCor®, AtCor Medical) was used to obtain the curve of central arterial pressure and the arterial stiffness indices. This device is currently the reference for quantifying arterial stiffness (represented by the augmentation index: Aix, FIG. 11) and monitors its evolution as a function of vasoactive therapies.
Patients having episodes of decrease in arterial pressure (decrease of 20% compared with the target pressure) and requiring the administration of a vasoconstrictor were included. Before each injection of […] (T0) and then at the time of the peak effect of the vasopressin (T1) the Pressure/Flow loops were plotted and the parameters derived from the loop were calculated. At the same time, using the SphygmoCor®, the augmentation index (Aix) and the arterial elastance (Ea) were recorded.
Depending on the anesthetists' choice, the patients received either 9 mg of Ephedrine, or 50 μg of Neophenylephrine, or 5 μg of Noradrenaline administered via a peripheral venous route.
Statistical Analysis: • search for the correlation between the Aix measured by SphygmoCor®, with the parameters of the P/F loop at T0 and at T1. • comparison of the evolution of the parameters of the P/F loop as a function of the use of Ephedrine, of Neosynephrine or of Noradrenaline. • comparison of the parameters of the P/F loop at T0 between the patients having cardiovascular risk factors and the patients not having risk factors. • study of the variations of the parameters of the P/F loop before and after vasoconstriction as a function of the patient's susceptibility to illness and of the type of vasoconstrictor used.

Compound | S2/Stot, Base | Alpha, Base | Beta, Base | Gamma, Base | S1, Base | S2, Base | S3, Base | Alpha, Peak | Beta, Peak | Gamma, Peak | S1, Peak | S2, Peak | S2/Stot, Peak | S3, Peak | change in surface areas (Stot, S1, S2, S3) and angles (alpha, beta and gamma) | S tot, Base | S tot, Peak | other results
CN[C@@H](C)[C@H](O)c1ccccc1 [Ephedrine] | 34.2 | 7.4 | 10.9 | 1.8 | 1997 | 1709 | 1658.8 | 9.5 | 13.3 | 2.4 | 2722 | 2694.4 | 32.6 | 2242.5 | significant increase | 4889 | 6974 | –
NC[C@H](O)c1ccc(O)c(O)c1 [Noradrenaline] | 26.4 | 8.5 | 11.5 | 2.2 | 1775 | 1215.9 | 1860.8 | 10.6 | 14.2 | 3.2 | 1963.2 | 1957.4 | 27.9 | 2311.5 | significant increase | 5291 | 6582 | –
CNC[C@H](O)c1cccc(O)c1 [Neosynephrine] | 26.9 | 8.5 | 11.2 | 2.1 | 2028 | 1255.2 | 1851.1 | 10.6 | 16.2 | 5.4 | 2516 | 2624.7 | 31.2 | 2452.2 | significant increase | 5344 | 7412 | increase of the beta and gamma angles (FIG. 13, for similar pressure increases induced by the vasoconstrictors): significantly more than Noradrenaline and Ephedrine; Alpha, Variations (Diff) (NEOSYNEPHRINE vs NORADRENALINE): −0.02; Beta, Variations (Diff) (NEOSYNEPHRINE vs NORADRENALINE): 2.55; Gamma, Variations (Diff) (NEOSYNEPHRINE vs NORADRENALINE): 2.59; S1, Variations (Diff) (NEOSYNEPHRINE vs NORADRENALINE): 266.01; S1/Stot %, Variations (Diff) (NEOSYNEPHRINE vs NORADRENALINE): −4.61%; S2, Variations (Diff) (NEOSYNEPHRINE vs NORADRENALINE): 615.97; S2/Stot %, Variations (Diff) (NEOSYNEPHRINE vs NORADRENALINE): 6.6%; S3, Variations (Diff) (NEOSYNEPHRINE vs NORADRENALINE): 221.27; S3/Stot %, Variations (Diff) (NEOSYNEPHRINE vs NORADRENALINE): −2.13%; S tot, Variations (Diff) (NEOSYNEPHRINE vs NORADRENALINE): 1072.27; increase with respect to Stot, beta, gamma and S2 (absolute and S2/Stot) (compared with the other two vasoconstrictors): greater increase than the other two vasoconstrictors; effect on ventricular-aortic coupling (reflected by greater increase in S2 and in beta and gamma angles): detrimental effect
